PMC5527305, “Prevention of Ophthalmia Neonatorum Caused by Neisseria gonorrhoeae Using a Fatty Acid-Based Formulation” (mBio, 2017)
Converted amounts (≈) assume the structure as drawn.

Legend:
[1] = system: nine gonococcal isolates (strain NCCP11945 and eight isolates from Public Health England); assay: Minimum bactericidal concentration by log reduction against nine gonococcal isolates; type: cell-based, Neisseria gonorrhoeae
Text: The seven candidates were further tested against nine gonococcal isolates, including strain NCCP11945 and eight isolates from Public Health England, to find their minimal bactericidal concentration (MBC). This was defined as the lowest concentration tested to give an average 4-log10 reduction in bacterial count after a 2-min exposure. […] Any candidate that killed all gonococcal cells in the cell suspension was given a log reduction score of six.
The well-characterized N. gonorrhoeae NCCP11945 strain ([36]) was used in the screening stage. Eight isolates obtained from Public Health England, representing circulating isolates from various European locations, were used in the log reduction assays. All isolates were cultured for 24 h prior to testing by plating on GC solid medium (Oxoid Limited, Hampshire, United Kingdom) with Kellogg supplements and incubation at 37°C and 5% CO2 ([37]).
Log reductions were done as described by Bergsson and coworkers ([18]). Briefly, cells were suspended in GC broth (18 g/liter GC base [Oxoid, Limited] with added defined supplements) to an optical density at 520 nm of 0.3, which is approximately equivalent to 10^7 to 10^8 cells per ml ([38]). […] The contents of the tubes were then mixed at room temperature for 2 min and immediately diluted in a 10-fold dilution series to 10^−4. The dilutions were plated by spreading 10 µl on a quarter of a plate; a 100-µl neat solution was also plated. Plates were then incubated at 37°C for 48 h, with all samples plated in duplicate. […] Additional testing at lower concentrations was also done on the eight clinical isolates of European origin.

[2] = system: gonococcal cells (isolate NCCP 11945); assay: Log reduction in artificial tear fluid with or without calcium chloride; type: cell-based, Neisseria gonorrhoeae; conditions: calcium 1 mM; Fig. 2
Method: The antigonococcal properties of the seven selected fatty acids were tested in artificial tear fluid, which contained calcium chloride. The addition of 1 mM lauric acid, tridecanoic acid, or sodium dodecanoate gave no reduction in bacterial cell number after exposure, in contrast to the results seen when they were tested in culture medium (Fig. 2). […] This was most likely due to the negative effect of calcium on the aqueous solubility of these candidates.
Artificial tear fluid was made as described by Mirejovsky and others ([39]) with or without calcium chloride. […] As with the previous log reductions, 10^7 gonococcal cells (isolate NCCP 11945) were suspended in GC broth. The cell suspension was centrifuged to remove the culture medium, and the bacteria were resuspended in the tear fluid. This was then added to the concentrated organic acid candidates. The cells were then enumerated again after 2 min of exposure to estimate any reduction in cell number due to the exposure to the organic acid.

C. trachomatis = system: C. trachomatis; parameters: method as in PMID 9736551; conditions: cited from earlier work

CCCCCCCCCC(=O)OCC(O)CO (stereo not shown) [Monocaprin]
Killing of all gonococcal cells for all isolates ([1]; 1 mM, 2 min): killed all gonococcal cells for all isolates
MBC ([1]; lowest concentration giving mean log reduction above 4 from a 2-min exposure): 0.5 mM (≈ 123 µg/mL)
Effect of calcium in artificial tear fluid on antimicrobial effect [2]: unaffected
Activity against C. trachomatis (C. trachomatis): bactericidal
